Like-named read-outs stand apart in the source and are kept apart here.
How the values were obtained:
Assay in all cases: Greenhouse test, pre-emergence treatment
[1] = system: SIDRH; assay type: in vivo, Sida rhombifolia; details: Sida rhombifolia, pre-emergence, 480 h
How it was run: (§1)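 Damage was rated on a 0-100 scale, with 100 meaning no emergence or full destruction of aerial parts. Observed combination effects were set against the additive Colby expectation E=X+Y−(X·Y/100). Spray liquor was water-based, from 10% emulsion concentrates, applied pre-emergence right after sowing in loamy sand (about 3.0% humus). Plants were held at 10-25 °C or 20-35 °C for 2 to 4 weeks.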

[2] = system: ALOMY; assay type: in vivo, Alopecurus myosuroides; details: Alopecurus myosuroides, pre-emergence, 480 h, pre-emergence, read-out: observed % activity 20 DAT; for inhibition at 50 g/ha: use rate 50 g ai/ha; for inhibition at 100 g/ha: use rate 100 g ai/ha
Description: (§2) The culture containers used were plastic flowerpots containing loamy sand with approximately 3.0% of humus as the substrate. The seeds of the test plants were sown separately for each species.
(§3) For the pre-emergence treatment, the active ingredients, which had been suspended or emulsified in water, were applied directly after sowing by means of finely distributing nozzles. The containers were irrigated gently to promote germination and growth and subsequently covered with transparent plastic hoods until the plants had rooted. This cover caused uniform germination of the test plants, unless this had been impaired by the active ingredients.
(§4) Depending on the species, the plants were kept at 10-25° C. or 20-35° C., respectively.
(§5) The test period extended over 2 to 4 weeks. During this time, the plants were tended, and their response to the individual treatments was evaluated.
(§6) Evaluation was carried out using a scale from 0 to 100. 100 means no emergence of the plants, or complete destruction of at least the aerial moieties, and 0 means no damage, or normal course of growth. A moderate herbicidal activity is given at values of at least 60, a good herbicidal activity is given at values of at least 70, and a very good herbicidal activity is given at values of at least 85.
(§7) The respective stated components a and b, and if appropriate, c were formulated as a 10% by weight strength emulsion concentrate and, with addition of the amount of solvent system, introduced into the spray liquor used for applying the active compound.
(§8) In the examples, the solvent used was water.
(§9) In the examples below, using the method of S. R. Colby (1967) “Calculating synergistic and antagonistic responses of herbicide combinations”, Weeds 15, p. 22ff., the value E, which is expected if the activity of the individual active compounds is only additive, was calculated. E=X+Y−(X·Y/100) where • X=percent activity using active compound a at an application rate A; • Y=percent activity using active compound b at an application rate B; • E=expected activity (in %) by a+b at application rates A+B.
(§10) If the value found experimentally is higher than the value E calculated according to Colby, a synergistic effect is present.

[3] = system: GERPU; assay type: in vivo, Geranium pusillum; details: Geranium pusillum, pre-emergence, 480 h
How it was run: as §1

[4] = system: KCHSC; assay type: in vivo, Kochia scoparia; details: Bassia scoparia, pre-emergence, 480 h, pre-emergence, read-out: observed % activity 20 DAT
How it was run: as §1

[5] = system: CENCY; assay type: in vivo; details: 480 h, individual, read-out: observed % activity 20 DAT
[6] = system: APESV; assay type: in vivo, Apera spica-venti; details: Apera spica-venti, 480 h, read-out: observed % activity 20 DAT
Description: as §2, §3, §4, §5, §6, §7, §8, §9, §10

[7] = system: COMBE; assay type: in vivo, Commelina benghalensis; details: Commelina benghalensis, pre-emergence, 480 h
How it was run: as §1

[8] = system: EPHHL; assay type: in vivo, Euphorbia heterophylla; details: Euphorbia heterophylla, pre-emergence, 480 h, read-out: observed % activity 20 DAT
How it was run: as §1

[9] = system: ECHCG; assay type: in vivo, Echinocloa crus-galli; details: Echinochloa crus-galli, 480 h, ECHCG, use rate 50 g ai/ha, 20 DAT, read-out: observed % activity 20 DAT
Description: as §2, §3, §4, §5, §6, §7, §8, §9, §10

[10] = system: POLCO; assay type: in vivo, Polygonum convolvulus; details: Fallopia convolvulus, pre-emergence, 480 h; for inhibition at 50 g/ha: use rate 50 g ai/ha
How it was run: as §1

[11] = system: IPOHE; assay type: in vivo, Ipomoea hederacea; details: Ipomoea hederacea, 480 h, IPOHE, individual, read-out: observed % activity 20 DAT
How it was run: as §1

[12] = system: LOLMU; assay type: in vivo, Lolium multiflorum; details: Lolium multiflorum, pre-emergence, 480 h, pre-emergence, read-out: observed % activity 20 DAT
Description: as §2, §3, §4, §5, §6, §7, §8, §9, §10

[13] = system: ABUTH; assay type: in vivo, Abutilon theophrasti; details: Abutilon theophrasti, 480 h
How it was run: as §1

[14] = system: ANTAR; assay type: in vivo; details: Anthemis arvensis, 480 h, 20 DAT, read-out: observed % activity
How it was run: as §1

[15] = 20 g ai/ha, 20 DAT, read-out: observed % activity
[16] = 40 g ai/ha, 20 DAT, read-out: observed % activity
[17] = read-out: observed % activity 20 DAT

Compound COc1c(Cl)ccc(Cl)c1C(=O)O [DICAMBA, dicamba] has an inhibition at 20 g/ha [1, 15] of 45%, an inhibition at 40 g/ha [1, 16] of 80% and an inhibition at 35 g/ha ([1]; SIDRH, individual, use rate 35 g ai/ha, read-out: observed % activity 20 DAT) of 20%. It also gave an inhibition at 70 g/ha [1, 17] of 15%, an inhibition at 50 g/ha ([2]; ALOMY, 20 DAT) of 20% and an inhibition at 100 g/ha ([2]; ALOMY, 20 DAT) of 40%. It also gave an inhibition at 50 g/ha [2] of 20%, an inhibition at 100 g/ha [2] of 40% and an inhibition at 20 g/ha [3, 15] of 20%. The inhibition at 40 g/ha [3, 16] was 85%, the inhibition at 35 g/ha ([3]; GERPU, individual, use rate 35 g ai/ha, read-out: observed % activity 20 DAT) was 40% and the inhibition at 100 g/ha ([4]; use rate 100 g ai/ha) was 90%. For the same compound, the inhibition at 35 g/ha [4] was 75%, the inhibition at 50 g/ha [4] was 85% and the inhibition at 70 g/ha [4] was 75%. It also gave an inhibition at 35 g/ha ([5]; use rate 35 g ai/ha) of 0%, an inhibition at 70 g/ha ([5]; use rate 70 g ai/ha) of 30% and an inhibition at 100 g/ha [6] of 35%. For the same compound, the inhibition at 20 g/ha [7, 15] was 45%, the inhibition at 40 g/ha [7, 16] was 65% and the inhibition at 70 g/ha ([7]; COMBE, individual, use rate 70 g ai/ha, read-out: observed % activity 20 DAT) was 50%. The inhibition at 35 g/ha [7, 17] was 15%, the inhibition at 35 g/ha [8] was 20% and the inhibition at 50 g/ha [9] was 0%. It also gave an inhibition at 20 g/ha [10, 15] of 35%, an inhibition at 40 g/ha [10, 16] of 90% and an inhibition at 50 g/ha ([10]; POLCO, 20 DAT, read-out: observed % activity 20 DAT) of 40%. It also gave an inhibition at 50 g/ha [10, 17] of 40%, an inhibition at 100 g/ha ([10]; use rate 100 g ai/ha, read-out: observed % activity 20 DAT) of 60% and an inhibition at 35 g/ha ([11]; use rate 35 g ai/ha) of 40%. For the same compound, the inhibition at 70 g/ha ([11]; use rate 70 g ai/ha) was 40%, the inhibition at 50 g/ha ([12]; LOLMU, use rate 50 g ai/ha, 20 DAT) was 40% and the inhibition at 100 g/ha [12] was 45%. For the same compound, the inhibition at 20 g/ha [13, 15] was 60%, the inhibition at 40 g/ha [13, 16] was 80% and the inhibition at 35 g/ha ([13]; ABUTH, individual, use rate 35 g ai/ha, read-out: observed % activity 20 DAT) was 0%. It also gave an inhibition at 70 g/ha ([13]; ABUTH, individual, use rate 70 g ai/ha, read-out: observed % activity 20 DAT) of 20%, an inhibition at 20 g/ha ([14]; 20 g ai/ha) of 30% and an inhibition at 40 g/ha ([14]; 40 g ai/ha) of 30%.

Reference: patent publication US9999222B2, “Herbicidal combination comprising azines” (BASF SE, priority 2014, dated 2018)
